Source: patent US7524849B2, “5-arylpyrimidines as anticancer agents” (Wyeth Holdings Corporation, priority 2003, dated 2009)

Test system: COLO 205 cells
Assay: MTS cytotoxicity test with COLO 205 cells
Type: cell-based, human
Settings: three days with compound
Procedure: The assay, which is sold in kit form by Promega (Madison, Wis.; CellTiter 96 AQueous Non-Radioactive Cell Proliferation Assay), is based on the conversion by viable cells, but not by dead cells, of the tetrazolium salt, MTS (3-(4,5-dimethylthiazol-2-yl)-5-(3-carboxymethoxyphenyl)-2-(4-sulphophenyl)-2H-tetrazolium, inner salt), into a water-soluble colored formazan which is detected by spectrophotometry. Compounds are tested at nine concentrations, in order to determine IC50 values. For the test procedure, cells are harvested by trypsinization, washed, counted and distributed to wells of 96-well flat-bottom microtiter plates at 1000 cells per well in 200 μL of medium. In addition, one row of wells on a separate plate receives cells as above (“time 0” plate). All plates are incubated at 37° in humidified 5% CO2 in air for about 24 hr.
On day 2, compounds for test are diluted and added to wells. Compounds are dissolved in DMSO at 10 mg/mL. For each compound, nine serial 2-fold dilutions are prepared in DMSO. Ten μL of each dilution in DMSO are transferred to 100 μL of medium, mixed well, and then 5 μL of this dilution are transferred in quadruplicate to wells containing cells. The final high concentration of each compound is typically 5 μM. Plates are returned to the incubator for three days. At the time of drug addition to the experimental plates, the MTS assay is run on the “time 0” plate. This produces the “time 0 MTS value” which is related to the number of viable cells per well at the time of drug addition.
After three days of culture with test compounds (day 5 overall), the MTS assay is done on all wells of the experimental plates. The absorbance values of the quadruplicate sample wells are averaged and divided by the average of the “time 0” values. The average of control wells without drug, divided by the average “time 0” value, gives the maximal relative increase in MTS color yield due to cell growth during the final three days of culture. The average of control wells with high drug concentration, divided by the “time 0” value, gives the minimal relative color yield for cells that were completely killed. The nine values for each compound are plotted against concentration, and the concentration that produces a relative color yield half way between the maximum and minimum is taken as the IC50 value.
COLO 205 is a human colon carcinoma cell line that is used for comparative testing of the examples of this invention and several reference compounds. This line is sensitive to paclitaxel and vincristine.

For “4-Chloro-6-[(2,2,2-trifluoroethyl)amino]-5-(2,4,6-trifluorophenyl)pyrimidin-2-yl]ethylcyanamide [Example 2]”, the IC50 was 0.304 µM.
C[C@H](Nc1nc(-c2cnccn2)nc(Cl)c1-c1c(F)cc(F)cc1F)C(F)(F)F [Example 3, 6-Chloro-2-pyrazin-2-yl-N-[(1S)-2,2,2-trifluoro-1-methylethyl]-5-(2,4,6-trifluorophenyl)pyrimidin-4-amine] gave an IC50 (Homo sapiens, 72 h) of 0.051 µM.
Fc1cc(F)c(-c2c(Cl)nc(-c3cnccn3)nc2NCC(F)(F)F)c(F)c1 [Example 4, 6-Chloro-2-pyrazin-2-yl-N-(2,2,2-trifluoroethyl)-5-(2,4,6-trifluorophenyl)pyrimidin-4-amine] was tested, and the IC50 (Homo sapiens, 72 h) was 0.084 µM.
Work on Fc1cc(F)c(-c2c(Cl)nc(-c3ncccn3)nc2NCC(F)(F)F)c(F)c1 [Example 5, 6-Chloro-N-(2,2,2-trifluoroethyl)-5-(2,4,6-trifluorophenyl)-2,2′-bipyrimidin-4-amine] yielded an IC50 (Homo sapiens, 72 h) of 0.265 µM.
With Fc1cc(F)c(-c2c(Cl)nc(-c3ccncc3)nc2NCC(F)(F)F)c(F)c1 [Example 6, 6-Chloro-2-pyridin-4-yl-N-(2,2,2-trifluoroethyl)-5-(2,4,6-trifluorophenyl)pyrimidin-4-amine] the IC50 (Homo sapiens, 72 h) was 7.05 µM.
Work on Fc1cc(F)c(-c2c(Cl)nc(-c3cccnc3)nc2NCC(F)(F)F)c(F)c1 [Example 7, 6-Chloro-2-pyridin-3-yl-N-(2,2,2-trifluoroethyl)-5-(2,4,6-trifluorophenyl)pyrimidin-4-amine] yielded an IC50 (Homo sapiens, 72 h) of 3.93 µM.
Work on Fc1cc(F)c(-c2c(Cl)nc(-c3ccccn3)nc2NCC(F)(F)F)c(F)c1 [Example 8, 6-Chloro-2-pyridin-2-yl-N-(2,2,2-trifluoroethyl)-5-(2,4,6-trifluorophenyl)pyrimidin-4-amine] yielded an IC50 (Homo sapiens, 72 h) of 0.039 µM.
With C[C@H](Nc1nc(-c2ccccn2)nc(Cl)c1-c1c(F)cc(F)cc1F)C(F)(F)F [Example 9, 6-Chloro-2-pyridin-2-yl-N-[(1S)-2,2,2-trifluoro-1-methylethyl]-5-(2,4,6-trifluorophenyl)pyrimidin-4-amine] the IC50 (Homo sapiens, 72 h) was 0.029 µM.
Fc1cc(F)c(-c2c(Cl)nc(-c3ccc4ccccc4n3)nc2NCC(F)(F)F)c(F)c1 [Example 10, 6-Chloro-2-quinolin-2-yl-N-(2,2,2-trifluoroethyl)-5-(2,4,6-trifluorophenyl)pyrimidin-4-amine] gave an IC50 (Homo sapiens, 72 h) of 0.25 µM.
In the case of Fc1cc(F)c(-c2c(Cl)nc(-c3nccc4ccccc34)nc2NCC(F)(F)F)c(F)c1 [Example 11, 6-Chloro-2-isoquinolin-1-yl-N-(2,2,2-trifluoroethyl)-5-(2,4,6-trifluorophenyl)pyrimidin-4-amine], the IC50 (Homo sapiens, 72 h) is reported as 4.68 µM.
In the case of Fc1cc(F)c(-c2c(Cl)nc(-c3cc4ccccc4cn3)nc2NCC(F)(F)F)c(F)c1 [Example 12, 6-Chloro-2-isoquinolin-3-yl-N-(2,2,2-trifluoroethyl)-5-(2,4,6-trifluorophenyl)pyrimidin-4-amine], the IC50 (Homo sapiens, 72 h) is reported as 0.119 µM.
Work on Fc1cc(F)c(-c2c(Cl)nc(-c3cccs3)nc2NCC(F)(F)F)c(F)c1 [Example 13, 6-Chloro-2-thien-2-yl-N-(2,2,2-trifluoroethyl)-5-(2,4,6-trifluorophenyl)pyrimidin-4-amine] yielded an IC50 (Homo sapiens, 72 h) of 3.46 µM.
With Fc1cc(F)c(-c2c(Cl)nc(-c3ccco3)nc2NCC(F)(F)F)c(F)c1 [Example 14, 6-Chloro-2-(2-furyl)-N-(2,2,2-trifluoroethyl)-5-(2,4,6-trifluorophenyl)pyrimidin-4-amine] the IC50 (Homo sapiens, 72 h) was 0.232 µM.
With Fc1cc(F)c(-c2c(Cl)nc(-n3cccn3)nc2NCC(F)(F)F)c(F)c1 [Example 16, 6-Chloro-2-(1H-pyrazol-1-yl)-N-(2,2,2-trifluoroethyl)-5-(2,4,6-trifluorophenyl)pyrimidin-4-amine] the IC50 (Homo sapiens, 72 h) was 0.053 µM.
Work on C[C@H](Nc1nc(-n2cccn2)nc(Cl)c1-c1c(F)cc(F)cc1F)C(F)(F)F [Example 17, 6-Chloro-2-(1H-pyrazol-1-yl)-N-[(1S)-2,2,2-trifluoro-1-methylethyl)-5-(2,4,6-trifluorophenyl)pyrimidin-4-amine] yielded an IC50 (Homo sapiens, 72 h) of 0.019 µM.
